Measurements reported in article PMC10285738, “Identification of macrocyclic peptides which activate bacterial cylindrical proteases” (RSC Medicinal Chemistry, 2023).
Entries after “also recorded” stand apart in the source; their conditions may differ.

Assays:
[1] = molecular target: T1, Sa.ClpP (Staphylococcus aureus, UniProt Q2G036); assay: FtsZ degradation by Sa.ClpP, SDS-PAGE; format: biochemical, S. aureus; conditions: 200 µM, ADEP2 at 10 µM, Sa. FtsZ 4.0 µM, 24 h, SDS-PAGE densitometry, at least three independent experiments, Fig. 4D
T1 construct: Strep-tag (C); made in house; host or cells: E. coli SG1146a (lacks endogenous ClpP)
Text: Lastly, we set out to answer to what extent ADEP and other allosteric activators of ClpP resemble the activation process of ClpX. To this end, we set up a biochemical assay and monitored the digestion of FtsZ, an essential protein for cell division, which is the major determinant for the filamentation phenotype induced by ADEP-activated ClpP.[17] […] We performed docking studies of the identified macrocycles into the same pocket where ADEP binds (see ESI ^† for full details).
(§1) Walther et al. Supporting Information
FITC casein degradation rate
(§2) All concentrations are given as final concentrations. Ligands were incubated at 200 µM in the […]
The linear part of the fluorescence curve was used to determine the relative degradation rate. Data analysis was performed by OriginPro […]
(§3) Beta-casein degradation by Ec.ClpP or Sa.ClpP
(§4) All concentrations are given as final concentrations. Ligands were incubated at 200 µM in […]
(§5) Aliquots were drawn at the
(§6) Gels were run at constant voltage […]
(§7) concentration was 200 µM. The results from densitometric analysis were plotted in Graphpad […]
Data is represented as mean ± SD of three independent experiments.
FtsZ degradation by Sa.ClpP […]
at a final concentration of 4.0 µM. […]
casein degradation assay. […]
SD of duplicates of at least two independent experiments. […]
equilibrated Superdex 200 Increase 10/300 GL column (Cytiva). Stabilization of Sa.ClpP in […]

[2] = FITC-casein fluorescence with/without Ec.ClpP (false-positive control); conditions: 200 µM, with vs without Ec.ClpP, 24 h at 37 °C, Fig. S2
Description: as §1
Protein purification and isolation […]
expressed in E. coli C41 (DE3) cells. A single colony was incubated overnight in 2xYT media containing ampicillin (0.1 mg/mL) at 37 °C. Subsequently 10 mL of the overnight inoculum was […]
applied to a Ni-NTA affinity column (GE Healthcare). The column was washed with an increasing […]
Protein containing fraction
10 mM MgCl2, glycerol 10 % (v/v)). The pure protein sample was obtained after size exclusion […]
0.5 mM EDTA, 100 mM KCl, 10 % glycerol).
After 18 hours of growth at 25 °C, cells […]
mM Tris-HCl, 1 mM EDTA, pH 8).
Here, the protein was eluted with an isocratic gradient of buffer containing 50 mM biotin. Protein was concentrated and buffer […]
stocks were stored in storage buffer at -20 °C. For long term storage, samples were stored at -80 […]
FITC casein degradation screen
as §2
samples is subtracted from all samples.

[3] = molecular target: T1, Sa.ClpP; assay: Dose-response of beta-casein degradation by Sa.ClpP; format: biochemical, S. aureus; conditions: two-fold dilution series in DMSO, highest concentration 200 µM, densitometry, non-linear fit; three independent experiments; Fig. 4B; read-out: EC50 (effective dose), Sa.ClpP-dependent digestion of beta-casein
Description: as §3, §4, §5, §6, §7
(§8) Data is represented as mean ± SD of three independent experiments. […]

[4] = molecular target: T1, Sa.ClpP; assay: Thermal shift assay (differential scanning fluorimetry); format: binding; conditions: S. aureus ClpP 5 µM, ligand 200 µM, HEPES 100 mM pH 7, NaCl 150 mM, sypro orange 5x, 30-90 °C in 0.5 °C increments; mean ± SD of duplicates of at least two independent experiments
Text: All concentrations are given as final concentrations. […]
real-time qPCR (Bio-Rad CF X96).
SD of duplicates of at least two independent experiments.
equilibrated Superdex 200 Increase 10/300 GL column (Cytiva). […]

[5] = tested on: Ec.ClpP; conditions: 200 µM peptide, E. coli ClpP 0.5 µM, FITC-casein 1.8 µM + beta-bovine casein 4.8 µM, Tris HCl 100 mM pH 7.6, KCl 100 mM, 24 h at 37 °C, exc. 483 nm, em 530 nm; duplicates of at least two independent experiments; vs DMSO
Description: Next, we screened for enzymatic activation of ClpP to quickly assess the chemical library for binding and understand whether IGF-bearing macrocyclic peptides could modulate ClpP enzymatic function. Modulation of ClpP was assessed using a biochemical assay monitoring the enzymatic function of the protease based on previously reported successes for the identification of allosteric activators of ClpP.[9] […] FITC-casein, a protein labeled with fluorescein to the extent of self-quenching, is a suitable substrate for this assay, as it can only enter the proteolytic core upon apical pore opening and is indirectly a measure for the conformational state of the protease.[2,10] Enzymatic degradation of FITC-casein alleviates self-quenching giving rise to an increased fluorescence intensity and an easy readout for our purpose to identify any ligand that positively modulates the enzymatic activity of recombinant E. coli ClpP (Ec.ClpP).
Ec.ClpP was incubated for 24 h at 37 °C in the presence of a peptide library, or vehicle (DMSO) and fluorescence intensity was measured thereafter (Fig. 2C and S1 ^†). […] This was reproducibly confirmed in three independent experiments (varying the batch of enzyme).

[6] = tested on: Ec.ClpP; conditions: 200 µM ligand, ClpP 1.0 µM, 24 h at 37 °C, SDS-PAGE densitometry, at least three independent experiments, Fig. 3D
Description: presence of E. coli ClpP or S. aureus ClpP (1.0 µM), and bovine beta-casein (Sigma-Aldrich –
catalogue number C6905, 5.0 µM or 3 µM) in Tris HCl buffer (100 mM, pH 7.6) with KCl (100 mM)
or HEPES buffer (100 mM, pH 7) with NaCl (150 mM) at 37 °C. Aliquots were drawn at the
indicated time points, quenched with SDS-loading buffer and heated to 90 °C for 5 min. Beta-
casein digestion was visualized by non-reducing Tris-glycine SDS-PAGE with 12 % acrylamide
and 4 % stacking gel or reducing Bolt 4-12% Bis-Tris Plus gels. Gels were run at constant voltage
(160-200 V) for 60 min and visualized with Coomassie brilliant blue dye. Protein bands were
quantified by densitometry using ImageJ from at least three independent experiments.
A two-fold dilution series in DMSO was performed to keep DMSO content identical. Highest
Prism and a non-linear fit was applied to estimate the EC50. Data is represented as mean ± SD of three independent experiments.

[7] = molecular target: T1, Sa.ClpP; assay: beta-casein degradation by Sa.ClpP, SDS-PAGE; format: biochemical, S. aureus; conditions: ligands at 200 µM, ADEP2 at 10 µM, ClpP 1.0 µM, 24 h at 37 °C, Fig. 4A
Description: as §3, §4, §5, §6, §7, §8

[8] = tested on: ClpP; conditions: in words, through another mechanism; cited from earlier work
Description: Modulation of ClpP was assessed using a biochemical assay monitoring the enzymatic function of the protease based on previously reported successes for the identification of allosteric activators of ClpP.[9]

[9] = molecular target: T1, Sa.ClpP; assay: Gel filtration (SEC) of ClpP oligomeric state; design: species or system S. aureus; conditions: Sa.ClpP 1 mg/mL, ligand 200 µM, destabilizing buffer Tris-HCl 100 mM pH 7.6, 100 mM KCl, overnight at 32 °C; Superdex 200

T1 sequence (Q2G036 whole entry): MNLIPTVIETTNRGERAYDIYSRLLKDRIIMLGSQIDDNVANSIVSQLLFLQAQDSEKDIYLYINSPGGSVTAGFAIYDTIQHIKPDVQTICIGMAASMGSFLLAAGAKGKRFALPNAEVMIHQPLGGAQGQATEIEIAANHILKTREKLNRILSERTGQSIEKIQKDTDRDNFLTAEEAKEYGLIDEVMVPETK

| Structure (SMILES) | Sa.ClpP-dependent Sa.FtsZ digestion [1] | fluorescence signal in presence or absence of Ec.ClpP (false-positive check) [2] | EC50 [3] | apparent increase in melting temperature of Sa.ClpP [4] | increase in fluorescence intensity / enzymatic activation of Ec.ClpP (FITC-casein) [5] | Ec.ClpP-dependent beta-casein digestion [6] | activation of Sa.ClpP (beta-casein digestion) [7] | effect on enzymatic function of ClpP homologues [8] | stabilization/retention of tetradecameric Sa.ClpP [9] |
| --- | --- | --- | --- | --- | --- | --- | --- | --- | --- |
| CC[C@H](C)[C@@H]1NC(=O)CNC(=O)[C@@H](NC(C)=O)CSCC(=O)CSC[C@@H](C(N)=O)NC(=O)CNC(=O)[C@H](Cc2ccccc2)NC(=O)CNC1=O [P4-B] | also induced the digestion of FtsZ, yet less efficiently | did not exhibit this behaviour | > 100 µM | 0.6 ± 0.2 °C | significant increase of fluorescence intensity over the DMSO-treated sample | control of Ec.ClpP function was confirmed by SDS-PAGE analysis of beta-casein digestion | able to activate the enzymatic function of Sa.ClpP | – | – |
| CC(C)C[C@H](NC(=O)[C@H](Cc1ccccc1)NC(=O)c1cnccn1)B(O)O [bortezomib] | – | – | – | – | – | – | – | able to increase enzymatic function of ClpP homologues | – |
| CCCC/C=C/C(=O)N[C@@H](Cc1cc(F)cc(F)c1)C(=O)OC [compound 2, reference compound] | activated Sa.ClpP, and FtsZ was digested | – | – | – | – | – | – | – | able to retain the tetradecamer in Tris-HCl; also recorded: able to rescue and stabilize the tetradecameric structure of Sa.ClpP |
